Assay results taken from patent publication US10351575B2, “Bicyclic urea, thiourea, guanidine and cyanoguanidine compounds useful for the treatment of pain” (Array BioPharma Inc., priority 2012, dated 2019).

These compounds were tested against His-tagged recombinant human TrkA (Homo sapiens (Human), UniProt P04629) (assay: TrkA LanthaScreen Eu Kinase Binding Assay). Settings: averaged IC50; TR-FRET binding, 60 min, 22° C.; read-out: TrkA Enzyme IC50.
Protocol: TrkA binding activity was determined in a TrkA LanthaScreen™ Eu Kinase Binding Assay. 5 nM His-tagged recombinant human TrkA (6HIS tagged cytoplasmic domain from Invitrogen, Catalog No. PV3144) was incubated with 4 nM Alexa-Fluor® Tracer 236 (Invitrogen Cat. No. PV5592), 2 nM biotinylated anti-His (Invitrogen Cat. No. PV6090), and 2 nM europium-labeled Streptavidin (Invitrogen Cat. No. PV5899), in buffer (25 mM MOPS, pH 7.5, 5 mM MgCl2, 0.005% Triton X-100). Three fold serial dilutions of compounds of the invention in DMSO were added to a final percentage of 2% DMSO. After 60-minute incubation at 22° C., the reaction was measured using the EnVision mutlimode plate reader (PerkinElmer) via TR-FRET dual wavelength detection at […]. The percent of control was calculated using a ratiometric emission factor. The IC50 values were determined by fitting a four parameter model to the percent of control data.

His-tagged recombinant human TrkA, sequence (P04629 440-796): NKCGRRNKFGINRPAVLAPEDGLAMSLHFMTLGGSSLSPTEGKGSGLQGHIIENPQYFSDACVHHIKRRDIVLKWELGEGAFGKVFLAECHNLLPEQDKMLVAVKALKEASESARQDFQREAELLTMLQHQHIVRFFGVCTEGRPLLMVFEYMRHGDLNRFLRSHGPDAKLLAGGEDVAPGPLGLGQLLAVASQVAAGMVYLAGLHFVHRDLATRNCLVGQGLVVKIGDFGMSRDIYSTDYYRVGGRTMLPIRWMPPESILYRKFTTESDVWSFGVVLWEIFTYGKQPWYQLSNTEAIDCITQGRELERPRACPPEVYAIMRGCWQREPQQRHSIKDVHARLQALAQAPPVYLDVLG

Row | IC50 | SMILES
1 | < 100 nM | CNC(=O)c1nn(-c2ccccc2)c(NC(=O)N[C@@H]2c3cc(COC)ccc3C(C)(C)C[C@H]2O)c1C (relative stereo) [Example 120, 5-(3-(trans-2-hydroxy-7-(methoxymethyl)-4,4-dimethyl-1,2,3,4-tetrahydronaphthalen-1-yl)ureido)-N,4-dimethyl-1-phenyl-1H-pyrazole-3-carboxamide]
2 | < 100 nM | Cc1nn(-c2ccccc2)c(NC(=O)N[C@@H]2c3ccccc3CC[C@H]2O)c1C (relative stereo) [Example 121, 1-(3,4-dimethyl-1-phenyl-1H-pyrazol-5-yl)-3-(trans-2-hydroxy-1,2,3,4-tetrahydronaphthalen-1-yl)urea]
3 | < 100 nM | Cc1c(OCC2CCN(C)CC2)nn(-c2ccccc2)c1NC(=O)N[C@@H]1c2ccccc2C(C)(C)C[C@H]1O (relative stereo) [Example 122, 1-(trans-2-hydroxy-4,4-dimethyl-1,2,3,4-tetrahydronaphthalen-1-yl)-3-(4-methyl-3-((1-methylpiperidin-4-yl)methoxy)-1-phenyl-1H-pyrazol-5-yl)urea]
4 | < 100 nM | Cc1c(OCC2CCN(C)CC2)nn(-c2ccccc2)c1NC(=O)N[C@@H]1c2ccccc2CC[C@H]1O (relative stereo) [Example 123, 1-(trans-2-hydroxy-1,2,3,4-tetrahydronaphthalen-1-yl)-3-(4-methyl-3-((1-methylpiperidin-4-yl)methoxy)-1-phenyl-1H-pyrazol-5-yl)urea]
5 | 100 to 1000 nM | Cc1nn(-c2ccccc2)c(NC(=O)N[C@@H]2c3ccccc3CCC[C@H]2O)c1C (relative stereo) [Example 126, 1-(3,4-dimethyl-1-phenyl-1H-pyrazol-5-yl)-3-(trans-6-hydroxy-6,7,8,9-tetrahydro-5H-benzo[7]annulen-5-yl)urea]
6 | 100 to 1000 nM | COc1ncc(-c2nn(-c3ccccc3)c(NC(=O)N[C@@H]3c4ccccc4CCC[C@H]3O)c2C)cn1 (relative stereo) [Example 128, 1-(trans-6-hydroxy-6,7,8,9-tetrahydro-5H-benzo[7]annulen-5-yl)-3-(3-(2-methoxypyrimidin-5-yl)-4-methyl-1-phenyl-1H-pyrazol-5-yl)urea]
7 | < 100 nM | COc1nn(-c2ccccc2)c(NC(=O)N[C@@H]2c3ccccc3C3(CC3)C[C@H]2O)c1C (relative stereo) [Example 152, 1-(trans-3′-hydroxy-3′,4′-dihydro-2′H-spiro[cyclopropane-1,1′-naphthalen]-4′-yl)-3-(3-methoxy-4-methyl-1-phenyl-1H-pyrazol-5-yl)urea]
8 | < 100 nM | COc1nn(-c2ccccc2)c(NC(=O)N[C@@H]2c3ccccc3OC3(CCC3)[C@H]2O)c1C (relative stereo) [Example 159, 1-(trans-3-hydroxyspiro[chroman-2,1′-cyclobutan]-4-yl)-3-(3-methoxy-4-methyl-1-phenyl-1H-pyrazol-5-yl)urea]
9 | < 100 nM | Cc1c(-c2cnn(C)c2)nn(-c2ccccc2)c1NC(=O)N[C@@H]1c2ccccc2OC2(CCC2)[C@H]1O (relative stereo) [Example 160, 1-(1′,4-dimethyl-1-phenyl-1H,1′H-[3,4′-bipyrazol]-5-yl)-3-(trans-3-hydroxyspiro[chroman-2,1′-cyclobutan]-4-yl)urea]
10 | < 100 nM | O=C(Nc1c2c(nn1-c1ccccc1)CCC2)N[C@H]1CCCc2ccccc21 [Example 3, (S)-1-(2-phenyl-2,4,5,6-tetrahydrocyclopenta[c]pyrazol-3-yl)-3-(1,2,3,4-tetrahydronaphthalen-1-yl)urea]
11 | 100 to 1000 nM | Cc1c(-c2cnn(C)c2)nn(-c2ccccc2)c1NC(=O)N[C@@H]1CCCc2ccccc21 [Example 4, (R)-1-(1′,4-dimethyl-1-phenyl-1H,1′H-3,4′-bipyrazol-5-yl)-3-(1,2,3,4-tetrahydronaphthalen-1-yl)urea]
12 | 100 to 1000 nM | CCOc1nn(-c2ccccc2)c(NC(=O)NC2CCOc3cc(F)ccc32)c1C (stereo not drawn) [Example 13, 1-(3-ethoxy-4-methyl-1-phenyl-1H-pyrazol-5-yl)-3-(7-fluorochroman-4-yl)urea]
13 | 100 to 1000 nM | Cc1c(-c2cnn(C)c2)nn(-c2ccccc2)c1NC(=O)NC1CC(C)Oc2ccc(F)cc21 (stereo not drawn) [Example 14, 1-(1′,4-dimethyl-1-phenyl-1H,1′H-[3,4′-bipyrazol]-5-yl)-3-(6-fluoro-2-methylchroman-4-yl)urea]
14 | < 100 nM | Cc1c(-c2cnn(C)c2)nn(-c2ccccc2)c1NC(=O)NC1CCCc2ccc(Br)cc21 (stereo not drawn) [Example 15, 1-(7-bromo-1,2,3,4-tetrahydronaphthalen-1-yl)-3-(1′,4-dimethyl-1-phenyl-1H,1′H-[3,4′-bipyrazol]-5-yl)urea]

Further lines, the compound ahead of its results:

Row | SMILES | IC50
15 | COc1ncc(-c2nn(-c3ccccc3)c(NC(=O)N[C@@H]3c4ccccc4CC[C@H]3O)c2C)cn1 (relative stereo) [Example 119, 1-(trans-2-hydroxy-1,2,3,4-tetrahydronaphthalen-1-yl)-3-(3-(2-methoxypyrimidin-5-yl)-4-methyl-1-phenyl-1H-pyrazol-5-yl)urea] | < 100 nM
16 | CNC(=O)c1nn(-c2ccccc2)c(NC(=O)N[C@@H]2c3ccccc3C(C)(C)C[C@H]2O)c1C (relative stereo) [Example 124, 5-(3-(trans-2-hydroxy-4,4-dimethyl-1,2,3,4-tetrahydronaphthalen-1-yl)ureido)-N,4-dimethyl-1-phenyl-1H-pyrazole-3-carboxamide] | < 100 nM
17 | CNC(=O)c1nn(-c2ccccc2)c(NC(=O)N[C@@H]2c3cc(Cl)ccc3C(C)(C)C[C@H]2O)c1C (relative stereo) [Example 125, 5-(3-(trans-7-chloro-2-hydroxy-4,4-dimethyl-1,2,3,4-tetrahydronaphthalen-1-yl)ureido)-N,4-dimethyl-1-phenyl-1H-pyrazole-3-carboxamide] | < 100 nM
18 | Cc1ncc(-c2nn(-c3ccccc3)c(NC(=O)N[C@@H]3c4ccccc4CCC[C@H]3O)c2C)cn1 (relative stereo) [Example 127, 1-(trans-6-hydroxy-6,7,8,9-tetrahydro-5H-benzo[7]annulen-5-yl)-3-(4-methyl-3-(2-methylpyrimidin-5-yl)-1-phenyl-1H-pyrazol-5-yl)urea] | 100 to 1000 nM
19 | Cc1c(-c2cnn(C)c2)nn(-c2ccccc2)c1NC(=O)N[C@@H]1c2ccccc2C2(CCC2)[C@H]1O (relative stereo) [Example 142, 1-(1′,4-dimethyl-1-phenyl-1H,1′H-[3,4′-bipyrazol]-5-yl)-3-(trans-2′-hydroxy-2′,3′-dihydrospiro[cyclobutane-1,1′-inden]-3′-yl)urea] | < 100 nM
20 | Cc1c(-c2cnn(C)c2)nn(-c2ccccc2)c1NC(=O)N[C@H]1c2ccccc2C2(CC2)[C@@H]1O (stereo in doubt) [Example 138, 1-(1′,4-dimethyl-1-phenyl-1H,1′H-[3,4′-bipyrazol]-5-yl)-3-((2′S,3′S)-2′-hydroxy-2′,3′-dihydrospiro[cyclopropane-1,1′-inden]-3′-yl)urea] | 100 to 1000 nM
21 | Cc1c(-c2cnn(C)c2)nn(-c2ccccc2)c1NC(=O)NC1CCCc2ccccc21 (stereo not drawn) [Example 1, 1-(1′,4-dimethyl-1-phenyl-1H,1′H-3,4′-bipyrazol-5-yl)-3-(1,2,3,4-tetrahydronaphthalen-1-yl)urea] | < 100 nM
22 | COc1ccc2c(c1)CCCC2NC(=O)Nc1c(C)c(-c2cnn(C)c2)nn1-c1ccccc1 (stereo not drawn) [Example 5, 1-(1′,4-dimethyl-1-phenyl-1H,1′H-3,4′-bipyrazol-5-yl)-3-(6-methoxy-1,2,3,4-tetrahydronaphthalen-1-yl)urea] | 100 to 1000 nM
23 | Cc1c(-c2cnn(C)c2)nn(-c2ccccc2)c1NC(=O)NC1CCCCc2ccccc21 (stereo not drawn) [Example 6, 1-(1′,4-dimethyl-1-phenyl-1H,1′H-3,4′-bipyrazol-5-yl)-3-(6,7,8,9-tetrahydro-5H-benzo[7]annulen-5-yl)urea] | < 100 nM
24 | Cc1c(-c2cnn(C)c2)nn(-c2ccccc2)c1NC(=O)NC1CCOc2ccccc21 (stereo not drawn) [Example 7, 1-(chroman-4-yl)-3-(1′,4-dimethyl-1-phenyl-1H,1′H-3,4′-bipyrazol-5-yl)urea] | 100 to 1000 nM
25 | Cc1c(-c2cnn(C)c2)nn(-c2ccccc2)c1NC(=O)NC1COCc2ccccc21 (stereo not drawn) [Example 8, 1-(1′,4-dimethyl-1-phenyl-1H,1′H-3,4′-bipyrazol-5-yl)-3-(isochroman-4-yl)urea] | 100 to 1000 nM
26 | Cc1c(-c2cnn(C)c2)nn(-c2ccccc2)c1NC(=O)NC1CC(C)(C)Oc2ccccc21 (stereo not drawn) [Example 9, 1-(1′,4-dimethyl-1-phenyl-1H,1′H-3,4′-bipyrazol-5-yl)-3-(2,2-dimethylchroman-4-yl)urea] | 100 to 1000 nM
27 | Cc1c(-c2cnn(C)c2)nn(-c2ccccc2)c1NC(=O)NC1COCc2ccc(Br)cc21 (stereo not drawn) [Example 10, 1-(6-bromoisochroman-4-yl)-3-(1′,4-dimethyl-1-phenyl-1H,1′H-[3,4′-bipyrazol]-5-yl)urea] | < 100 nM
28 | Cc1nn(-c2ccccc2)c(NC(=O)N[C@H]2CCCc3ccccc32)c1Br [Example 11, (S)-1-(4-bromo-3-methyl-1-phenyl-1H-pyrazol-5-yl)-3-(1,2,3,4-tetrahydronaphthalen-1-yl)urea] | < 100 nM
29 | Cc1c(-c2cnn(C)c2)nn(-c2ccccc2)c1NC(=O)NC1CCC(C)(C)c2ccc(Br)cc21 (stereo not drawn) [Example 16, 1-(7-bromo-4,4-dimethyl-1,2,3,4-tetrahydronaphthalen-1-yl)-3-(1′,4-dimethyl-1-phenyl-1H,1′H-[3,4′-bipyrazol]-5-yl)urea] | < 100 nM
30 | COCCN1CCc2ccccc2C(NC(=O)Nc2c(C)c(-c3cnn(C)c3)nn2-c2ccccc2)C1 (stereo not drawn) [Example 17, 1-(1′,4-dimethyl-1-phenyl-1H,1′H-3,4′-bipyrazol-5-yl)-3-(3-(2-methoxyethyl)-2,3,4,5-tetrahydro-1H-benzo[d]azepin-1-yl)urea] | 100 to 1000 nM
